Earlier results in patent publication US12365919B2, “Serum-free suspension system for lentiviral production” (priority 2016, dated 2025).

System: lentiviral vector production
Conditions: serum-based culture system; worked only ~50% as well as caffeine

## CCCC(=O)[O-].[Na+] [sodium butyrate]
  lentiviral vector production enhancement, relative to caffeine: ~50%
